Laboratory results: publication PMC10148624, “Discovery of diarylpyrimidine derivatives bearing piperazine sulfonyl as potent HIV-1 nonnucleoside reverse transcriptase inhibitors” (Communications Chemistry, 2023)
Where two headings read alike, the source gives them in different places. Marks after values point to notes of the source that are not given here.

Legend:
[1] = tested on: MT-4 cells; settings: mock-infected MT-4 cells, MTT method, same laboratory; cited from earlier work
[2] = tested on: HIV-1 K103N/Y181C double mutant (RES056); settings: cited from earlier work
[3] = tested on: HIV-1 WT (IIIB); settings: cited from earlier work; for EC50: MT-4 cells, MTT method, same laboratory, same method
[4] = tested on: HIV-1 K103N/Y181C double mutant (RES056); assay: microbe, parasite or virus in culture; type: cell-based; settings: Human immunodeficiency virus 1, MT4, read-out: EC50 RES056
Description: (§1) The biological results were determined as EC50 (anti-HIV potency), CC50 (cytotoxicity) and SI (selectivity index, the ratio of CC50/EC50). […]
(§2) compounds were made directly in flat-bottomed 96-well microtiter trays by adding 100 μL medium to the 25 μL stock solution and transferring 25 μL of this solution to another well that contained 100 μL medium using a Biomek 3000 robot (Beckman Instruments, Fullerton, CA). Untreated control HIV- and mock-infected cell samples were included for each sample. HIV-1 WT strain (IIIB), HIV-1 drug-resistant strains including […]
(§3) (50% cell culture infectious dose) or culture medium was added to either the infected or mock-infected wells of the microtiter tray. Mock-infected cells were used to evaluate the effect of test compounds on uninfected cells in order to assess its cytotoxicity.
(§4) Exponentially growing MT-4 cells were centrifuged for 5 min at 1000 rpm and the supernatant was discarded.
(§5) 50 μL volumes were transferred to the microtiter tray wells. Five days after infection, the viability of mock- and HIV-infected cells was examined spectrophotometrically by […]
(§6) concentration of the test compound that reduced the viability of the mock-infected MT- […]

[5] = tested on: HIV-1 WT (IIIB); assay: microbe, parasite or virus in culture; type: cell-based; settings: Human immunodeficiency virus 1, IIIB, MT4; MT-4 cells, MTT method, mean ± SD, n ≥ 4; read-out: EC50 IIIB
Description: as §1, §2, §3, §4, §5, §6

[6] = Cytotoxicity in mock-infected MT-4 cells, MTT method; settings: human
Description: as §1, §2, §3, §4, §5, §6

[7] = tested on: HIV-1 L100I; assay: microbe, parasite or virus in culture; type: cell-based; settings: Human immunodeficiency virus 1, MT4, read-out: EC50 L100I
Description: as §2, §3, §4, §5, §6

[8] = tested on: HIV-1 E138K; assay: microbe, parasite or virus in culture; type: cell-based; settings: Human immunodeficiency virus 1, MT4, read-out: EC50 E138K
Description: as §2, §3, §4, §5, §6

[9] = tested on: HIV-1 F227L/V106A; assay: Anti-HIV-1 activity against F227L/V106A mutant strain, MTT method in MT-4 cells; type: cell-based; settings: Human immunodeficiency virus 1, MT4, read-out: EC50 F227L/V106A
Excerpt: (§7) According to the anti-HIV-1(WT) results, the promising compounds 18a(1–5), 18b(1–5) and 18c1 were chosen to further evaluate their inhibitory potency against the prevalent HIV-1 mutations, including L100I, K103N, Y181C, Y188L, E138K, and F227L/V106A. […]. page 20:
(§8) or mock-infected wells of the microtiter tray. Mock-infected cells were used to evaluate
(§9) supernatant was discarded.
(§10) Five days after infection,
(§11) 4 cells by 50%. […]

[10] = tested on: HIV-1 Y188L; assay: Anti-HIV-1 activity against Y188L mutant strain, MTT method in MT-4 cells; type: cell-based; settings: Human immunodeficiency virus 1, MT4, read-out: EC50 Y188L
Excerpt: as §7, §8, §9, §10, §11

[11] = tested on: HIV-1 K103N; assay: Anti-HIV-1 activity against K103N mutant strain, MTT method in MT-4 cells; type: cell-based; settings: Human immunodeficiency virus 1, MT4, read-out: EC50 K103N
Excerpt: as §7, §8, §9, §10, §11

[12] = target: CYP2C19 (Homo sapiens, UniProt P33261); assay: CYP enzyme inhibition assay in human liver microsome, CYP2C19; settings: read-out: IC50 CYP2C19; human liver microsome, probe substrate S-mephenytoin
CYP2C19, sequence (P33261 whole entry): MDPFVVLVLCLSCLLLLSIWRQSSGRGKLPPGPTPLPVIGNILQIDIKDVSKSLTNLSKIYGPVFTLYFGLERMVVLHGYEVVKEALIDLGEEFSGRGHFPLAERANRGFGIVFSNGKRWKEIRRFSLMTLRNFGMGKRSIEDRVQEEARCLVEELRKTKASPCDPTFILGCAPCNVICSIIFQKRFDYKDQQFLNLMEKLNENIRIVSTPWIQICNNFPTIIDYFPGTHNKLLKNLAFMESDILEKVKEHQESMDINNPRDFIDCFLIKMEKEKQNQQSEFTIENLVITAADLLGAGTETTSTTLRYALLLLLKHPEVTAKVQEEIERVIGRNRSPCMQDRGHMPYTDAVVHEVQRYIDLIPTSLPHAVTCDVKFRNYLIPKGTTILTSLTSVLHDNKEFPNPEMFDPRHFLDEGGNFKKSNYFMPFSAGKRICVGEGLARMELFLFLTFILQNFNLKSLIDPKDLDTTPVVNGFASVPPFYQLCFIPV
Excerpt: (§12) Section 8. CYP enzyme inhibition assay […]
(§13) Agilent 1200 LC/MSD (Agilent, USA).

[13] = target: T1, CYP1A2 (Homo sapiens, UniProt P05177); assay: in vitro; settings: microsomes
T1 sequence (P05177 1-516): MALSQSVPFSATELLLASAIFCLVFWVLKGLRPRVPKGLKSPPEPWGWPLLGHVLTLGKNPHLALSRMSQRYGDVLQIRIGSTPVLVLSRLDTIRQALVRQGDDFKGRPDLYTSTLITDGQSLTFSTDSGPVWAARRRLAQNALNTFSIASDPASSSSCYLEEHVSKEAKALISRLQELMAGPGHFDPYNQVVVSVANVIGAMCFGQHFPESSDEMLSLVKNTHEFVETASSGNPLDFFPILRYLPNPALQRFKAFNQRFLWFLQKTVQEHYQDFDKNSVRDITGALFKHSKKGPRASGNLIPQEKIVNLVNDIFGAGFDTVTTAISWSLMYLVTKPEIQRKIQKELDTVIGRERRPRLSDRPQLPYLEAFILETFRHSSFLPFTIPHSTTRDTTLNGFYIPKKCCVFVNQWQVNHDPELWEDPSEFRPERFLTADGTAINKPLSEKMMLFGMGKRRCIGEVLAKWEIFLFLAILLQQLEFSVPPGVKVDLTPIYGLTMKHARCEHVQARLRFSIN
Excerpt: as §12, §13

[14] = target: CYP2C9 (Homo sapiens, UniProt P11712); assay: CYP enzyme inhibition assay in human liver microsome, CYP2C9; settings: read-out: IC50 CYP2C9; human liver microsome, probe substrate diclofenac
CYP2C9, sequence (P11712 whole entry): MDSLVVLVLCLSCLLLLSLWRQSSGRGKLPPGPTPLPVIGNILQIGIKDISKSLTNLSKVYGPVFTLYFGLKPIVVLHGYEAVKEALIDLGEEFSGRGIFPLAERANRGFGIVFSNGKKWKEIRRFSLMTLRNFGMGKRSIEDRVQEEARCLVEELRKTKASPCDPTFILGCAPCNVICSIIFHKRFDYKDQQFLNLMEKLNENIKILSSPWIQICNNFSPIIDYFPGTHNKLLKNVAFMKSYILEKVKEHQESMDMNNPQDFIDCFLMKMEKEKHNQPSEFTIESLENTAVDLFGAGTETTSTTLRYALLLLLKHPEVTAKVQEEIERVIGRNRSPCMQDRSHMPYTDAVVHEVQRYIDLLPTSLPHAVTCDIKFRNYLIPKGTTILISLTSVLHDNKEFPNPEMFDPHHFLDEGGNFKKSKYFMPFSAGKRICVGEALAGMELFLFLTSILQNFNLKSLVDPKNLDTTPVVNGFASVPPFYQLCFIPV
Excerpt: as §12, §13

[15] = target: CYP3A4 (Homo sapiens, UniProt P08684); assay: in vitro; settings: microsomes
CYP3A4, sequence (P08684 whole entry): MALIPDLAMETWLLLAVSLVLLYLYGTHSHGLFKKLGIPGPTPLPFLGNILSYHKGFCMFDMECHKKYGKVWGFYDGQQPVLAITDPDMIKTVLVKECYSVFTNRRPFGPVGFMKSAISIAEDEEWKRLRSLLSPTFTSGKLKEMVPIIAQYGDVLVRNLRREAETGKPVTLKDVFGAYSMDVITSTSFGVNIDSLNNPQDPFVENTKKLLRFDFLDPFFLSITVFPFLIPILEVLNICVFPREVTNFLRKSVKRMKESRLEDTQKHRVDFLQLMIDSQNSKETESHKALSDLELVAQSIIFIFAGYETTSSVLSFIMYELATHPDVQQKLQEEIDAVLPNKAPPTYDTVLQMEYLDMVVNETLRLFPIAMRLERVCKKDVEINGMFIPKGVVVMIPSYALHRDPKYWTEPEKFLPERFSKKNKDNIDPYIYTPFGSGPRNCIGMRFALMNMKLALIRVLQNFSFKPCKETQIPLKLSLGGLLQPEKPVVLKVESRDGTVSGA
Excerpt: as §12, §13

[16] = design: method as in PMID 24008177; settings: cited from earlier work
[17] = at pH 7.0; cited from earlier work
[18] = tested on: HIV-1 Y181C; assay: Anti-HIV-1 activity against Y181C mutant strain, MTT method in MT-4 cells; type: cell-based; settings: Human immunodeficiency virus 1, MT4, read-out: EC50 Y181C, MT-4 cells, MTT method, mean ± SD, n ≥ 4
Excerpt: as §8, §9, §10, §11

[19] = target: CYP2D6 (Homo sapiens, UniProt P10635); assay: in vitro
CYP2D6, sequence (P10635 whole entry): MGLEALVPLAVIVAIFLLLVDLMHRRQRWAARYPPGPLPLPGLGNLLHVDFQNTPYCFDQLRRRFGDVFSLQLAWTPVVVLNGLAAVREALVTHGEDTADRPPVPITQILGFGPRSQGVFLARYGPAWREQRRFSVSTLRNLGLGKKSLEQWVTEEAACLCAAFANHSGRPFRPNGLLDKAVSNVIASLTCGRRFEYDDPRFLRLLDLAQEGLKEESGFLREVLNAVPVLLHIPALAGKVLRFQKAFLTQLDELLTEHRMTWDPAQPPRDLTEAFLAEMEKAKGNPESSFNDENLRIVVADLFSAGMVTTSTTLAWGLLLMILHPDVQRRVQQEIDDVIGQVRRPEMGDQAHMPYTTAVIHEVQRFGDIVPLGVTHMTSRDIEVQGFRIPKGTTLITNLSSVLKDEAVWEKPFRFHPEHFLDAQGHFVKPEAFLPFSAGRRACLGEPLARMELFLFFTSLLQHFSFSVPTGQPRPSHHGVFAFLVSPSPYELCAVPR
Description: Fig. S3 Decomposition of the binding free energy (per-residue) into contributions from electrostatic energy, vdw energy, polar solvation energy, and non-polar solvation energy. a K103N-18b1. b […]
Section 7. Water solubility measurements
Water solubility was measured in phosphate buffer at pH 7.0 by using an HPLC-UV method.17 Compounds were initially dissolved in DMSO at 10 mg/mL 10 μL of this stock solution was spiked into purified water (1 mL) with the final DMSO concentration being 1%. The mixture was ultrasonic for 2 h at room temperature and restored at room temperature overnight. The saturated solution was filtrated through a filter membrane (pore size = 0.22 μm) and transferred to other Eppendorf tubes for analysis by HPLC-UV. The sample was performed in triplicate. For quantification, a model LC-20AT HPLC-UV (SHIMADZU) system was used with an Inertsil ® ODS-SP-C18 column (150 mm × 4.6 mm, 5 μm) and MeOH/water as eluant. The flow rate was 1.0 mL/min, and injection volume was 20 μL. Aqueous concentration was determined by comparison of the peak area of the saturated solution with a standard curve plotted peak area versus known concentrations, which were prepared by solutions in MeOH at 200, […]
as §12
Section 9. Pharmacokinetics studies […]
approval from the Animal Ethical and Welfare Committee (AEWC). Ten male […]
Blood samples (200 μL of blood
Briefly, 50 μL of plasma was […]
tube, which was centrifuged at 3000g for 10 min. The supernatant layer was collected […]
Standard curves for 18b1 in […]
with an internal standard to blank plasma. Then all samples were quantified with an […]

[20] = target: T2, WT HIV-1 RT (Human immunodeficiency virus type 1 group M subtype B, UniProt P04585); assay: biochemical
T2 construct: purchased Roche
Description: Section 4. HIV-1 RT inhibition assays
A reverse transcriptase (RT) assay kit produced by Roche was selected for the RT inhibition assay.3 All the reagents for performing the RT reaction came with the kit and the ELSIA procedures for RT inhibition assay was carried out following the description in the kit protocol. Briefly, the reaction mixture containing template/primer complex, viral nucleotides (dNTPs) and RT in the incubation buffer with or without inhibitors was incubated for 1 h at 37 °C . After that, the reaction mixture was transferred to a streptavidine coated microtiter plate and incubated for another 1 h at 37 °C to make sure retranscriptional cDNA chain that consisted biotin labeled dNTPs bound to streptavidine. Then unbound dNTPs were removed using washing buffer and anti-DIG-POD working solution was added. After incubation for 1 h at 37 °C , the DIG-labeled dNTPs incorporated in cDNA were bound to the anti-DIG-POD antibody. The unbound

Row | Structure (SMILES) | EC50 [3] | EC50 [4] | EC50 [5] | CC50 at 5 days [6] | EC50 [7] | EC50 [8] | EC50 [9] | EC50 [10] | EC50 [11] | EC50 [18] | IC50 [20] | further results
1 | Cn1c(Cn2ccc(C(F)(F)F)c(Oc3cc(Cl)cc(C#N)c3)c2=O)n[nH]c1=O [DOR, doravirine] | 13 ± 4 nM | – | – | – | – | – | – | – | – | – | – | CC50 [1]: > 294000 nM; EC50 ([2]; MT-4 cells, MTT method, same laboratory, same method): 15 ± 6 nM; SI RES056 ([2]; ratio of CC50/EC50): >20136; SI IIIB ([3]; ratio of CC50/EC50): >21,940
2 | O=C1Nc2ccc(Cl)cc2[C@@](C#CC2CC2)(C(F)(F)F)O1 [EFV, efavirenz] | – | 300 ± 190 nM | 3.7 ± 0.67 nM | > 6330 nM | 53 ± 28 nM | 6.5 ± 1.7 nM | 260 ± 100 nM | 250 ± 56 nM | 120 ± 24 nM | – | – | –
3 | Cc1cc(C#N)cc(C)c1Oc1nc(Nc2ccc(C#N)cc2)nc(N)c1Br [ETR, etravirine] | – | 76 ± 25 nM | 3.3 ± 0.38 nM | – | – | 18 ± 7.2 nM | 25 ± 7.2 nM | 25 ± 7.6 nM | 4.3 ± 1 nM | 18 ± 3.8 nM | 1350 ± 350 nM | IC50 [12]: 496 nM; IC50 at 10 min [13]: > 10000 nM; IC50 [14]: 277 nM; IC50 at 10 min [15]: > 10000 nM; oral bioavailability (F) [16]: undetectable; water solubility [17]: <1^e μg/mL; IC50 at 10 min ([19]; human, microsomes, IC50 CYP2D6): > 10000 nM; IC50 ([19]; read-out: IC50 CYP2D6, human liver microsome, probe substrate dextromethorphan): 12000 nM
4 | Cc1ccnc2c1NC(=O)c1cccnc1N2C1CC1 [NVP, Nevirapine] | – | > 15000 nM | 190 ± 76 nM | > 15000 nM | 2230 ± 980 nM | – | > 15000 nM | > 15000 nM | 6040 ± 2660 nM | 7400 ± 1780 nM | – | –
5 | Cc1cc(/C=C/C#N)cc(C)c1Nc1ccnc(Nc2ccc(C#N)cc2)n1 [RPV, rilpivirine] | 1 ± 0.27 nM | – | – | – | – | – | – | – | – | – | 430 ± 87 nM | –
